These compounds were tested against T1, human TGR5 (Homo sapiens, UniProt Q8TDU6) (assay: Cell-based TGR5 assay (cAMP generation, HTRF)). Settings: HEK293 cells stably transfected with human TGR5; cAMP by HTRF; 30 minutes at 37° C.; read-out: pEC50 Human TGR5 (converted).
T1 construct: expressed in transfected cells; host or cells: HEK293
T1 sequence (Q8TDU6 1-330): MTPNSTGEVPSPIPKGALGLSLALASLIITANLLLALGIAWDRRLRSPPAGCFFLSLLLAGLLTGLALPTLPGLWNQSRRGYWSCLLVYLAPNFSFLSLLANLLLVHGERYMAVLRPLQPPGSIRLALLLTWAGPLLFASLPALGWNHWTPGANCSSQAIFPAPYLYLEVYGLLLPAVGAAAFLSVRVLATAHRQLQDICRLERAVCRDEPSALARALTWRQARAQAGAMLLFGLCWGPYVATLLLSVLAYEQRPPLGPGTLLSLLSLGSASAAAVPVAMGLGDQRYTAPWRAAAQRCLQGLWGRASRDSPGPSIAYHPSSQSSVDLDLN
How it was run: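 First, compounds in 3-fold serial dilution were placed in HBSS with 10 mM HEPES pH 7.4 and 0.5 mM IBMX. Next, human TGR5-expressing HEK293 cells were added and incubated 30 min at 37° C. Finally, cAMP was detected by HTRF and pEC50 derived by logistic fitting.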

| Structure (SMILES) | EC50 [nM] |
| --- | --- |
| O=C(CCCCc1ccc(Cl)c(CNC2(c3cnccc3-c3ccccc3OC3CC3)CC2)c1)NC[C@H](O)[C@@H](O)[C@H](O)[C@H](O)CO (stereo in doubt) [Compound I-233, 5-{4-chloro-3-[({1-[4-(2-cyclopropoxyphenyl)pyridin-3-yl]cyclopropyl}amino)methyl]phenyl}-N-[(2S,3R,4R,5R)-2,3,4,5,6-pentahydroxyhexyl]pentanamide] | < 100 |
| CN(CCCCc1cc(Cl)c(COC2(c3cnccc3-c3ccccc3OC3CC3)CC2)cc1Cl)C(=O)NC[C@H](O)[C@@H](O)[C@H](O)[C@H](O)CO (stereo in doubt) [Compound I-204, 1-{4-[2,5-dichloro-4-({1-[4-(2-cyclopropoxyphenyl)pyridin-3-yl]cyclopropoxy}methyl)phenyl]butyl}-1-methyl-3-[(2S,3R,4R,5R)-2,3,4,5,6-pentahydroxyhexyl]urea] | < 100 |
| O=C(CCCSc1ccc(Cl)c(COC2(c3cnccc3-c3ccccc3OC3CC3)CC2)c1)N(CCOCCO)C[C@H](O)[C@@H](O)[C@H](O)[C@H](O)CO [Compound I-683, 4-{[4-chloro-3-({1-[4-(2-cyclopropoxyphenyl)pyridin-3-yl]cyclopropoxy}methyl)phenyl]sulfanyl}-N-[2-(2-hydroxyethoxy)ethyl]-N-[(2S,3R,4R,5R)-2,3,4,5,6-pentahydroxyhexyl]butanamide] | 126 to 1000 |
| Cc1ccc(SCCCCC(=O)NC[C@H](O)[C@@H](O)[C@H](O)[C@H](O)CO)nc1COC1(c2cnccc2-c2ccccc2OC2CC2)CC1 [Compound I-657, 5-{[6-({1-[4-(2-cyclopropoxyphenyl)pyridin-3-yl]cyclopropoxy}methyl)-5-methylpyridin-2-yl]sulfanyl}-N-[(2S,3R,4R,5R)-2,3,4,5,6-pentahydroxyhexyl]pentanamide] | 1260 to 10000 |
| CC(C)N(CCCCNC(=O)NC[C@H](O)[C@@H](O)[C@H](O)[C@H](O)CO)S(=O)(=O)c1ccc(Cl)c(CNC2(c3cnccc3-c3ccccc3OC3CC3)CC2)c1 [Compound I-751, 4-chloro-3-(((1-(4-(2-cyclopropoxyphenyl)pyridin-3-yl)cyclopropyl)amino)methyl)-N-isopropyl-N-(4-(3-((2S,3R,4R,5R)-2,3,4,5,6-pentahydroxyhexyl)ureido)butyl) benzenesulfonamide] | < 100 |
| O=C([C@@H](O)[C@@H](O)[C@H](O)[C@@H](O)CO)N(CCCCCSc1ccc(Cl)c(COC2(c3cnccc3-c3ccccc3OC3CC3)CC2)c1)CCOCCO [Compound I-489, (2S,3S,4R,5S)-N-(5-[[4-chloro-3-([1-[4-(2-cyclopropoxyphenyl)pyridin-3-yl]cyclopropoxy]methyl)phenyl]sulfanyl]pentyl)-2,3,4,5,6-pentahydroxy-N-[2-(2-hydroxyethoxy)ethyl]hexanamide] | < 100 |
| CCS(=O)(=O)CCN(CCCC(C)c1ccc(C)c(CNC2(c3cnccc3-c3ccccc3OC3CC3)CC2)c1)C(=O)[C@@H](O)[C@@H](O)[C@H](O)[C@@H](O)CO (stereo partly drawn) [Compound I-307, (2S,3S,4R,5S)-N-(4-{3-[({1-[4-(2-cyclopropoxyphenyl)pyridin-3-yl]cyclopropyl}amino)methyl]-4-methylphenyl}pentyl)-N-[2-(ethanesulfonyl)ethyl]-2,3,4,5,6-pentahydroxyhexanamide] | < 100 |
| Clc1ccc(Cl)c(COC2(c3cnccc3-c3ccccc3OC3CC3)CCC2)c1 [Compound I-741, 4-(2-cyclopropoxyphenyl)-3-(1-((2,5-dichlorobenzyl)oxy)cyclobutyl)pyridine] | < 100 |
| Cc1ccc(C(F)(F)F)cc1CNC1(c2cnccc2-c2ccccc2OC2CC2)CC1 [Compound I-37, 1-[4-(2-cyclopropoxyphenyl)pyridin-3-yl]-N-{[2-methyl-5-(trifluoromethyl)phenyl]methyl}cyclopropan-1-amine] | < 100 |
| Cc1ccc(CCCCC(=O)NC[C@H](O)[C@@H](O)[C@H](O)[C@H](O)CO)cc1COC1(c2cnccc2-c2ccccc2OC2CC2)CC1 (stereo in doubt) [Compound I-235, 5-[3-({1-[4-(2-cyclopropoxyphenyl)pyridin-3-yl]cyclopropoxy}methyl)-4-methylphenyl]-N-[(2S,3R,4R,5R)-2,3,4,5,6-pentahydroxyhexyl]pentanamide] | < 100 |
| CC(=O)NS(=O)(=O)c1ccc(Cl)c(COC2(c3cnccc3-c3ccccc3OC3CC3)CC2)c1 [Compound I-729, N-[[4-chloro-3-([1-[4-(2-cyclopropoxyphenyl)pyridin-3-yl]cyclopropoxy]methyl)benzene]sulfonyl]acetamide] | 1260 to 10000 |
| O=C([C@@H](O)[C@@H](O)[C@H](O)[C@@H](O)CO)N(CCCCSc1ccc(Cl)c(COC2(c3cnccc3-c3ccccc3OC3CC3)CC2)c1)CC1CCOCC1 [Compound I-516, (2S,3S,4R,5S)-N-(4-{[4-chloro-3-({1-[4-(2-cyclopropoxyphenyl)pyridin-3-yl]cyclopropoxy}methyl)phenyl]sulfanyl}butyl)-2,3,4,5,6-pentahydroxy-N-(oxan-4-ylmethyl)hexanamide] | < 100 |
| CC(OCCc1cc(Cl)c(COC2(c3cnccc3-c3ccccc3OC3CC3)CC2)cc1Cl)C(=O)N(C)C[C@H](O)[C@@H](O)[C@H](O)[C@H](O)CO (stereo partly drawn) [Compound I-155, 2-{2-[2,5-dichloro-4-({1-[4-(2-cyclopropoxyphenyl)pyridin-3-yl]cyclopropoxy}methyl)phenyl]ethoxy}-N-methyl-N-[(2S,3R,4R,5R)-2,3,4,5,6-pentahydroxyhexyl]propanamide] | < 100 |
| CS(=O)(=O)CC(=O)N(CCCCc1cc(Cl)c(COC2(c3cnccc3-c3ccccc3OC3CC3)CC2)cc1Cl)C[C@H](O)[C@@H](O)[C@H](O)[C@H](O)CO [Compound I-202, N-{4-[2,5-dichloro-4-({1-[4-(2-cyclopropoxyphenyl)pyridin-3-yl]cyclopropoxy}methyl)phenyl]butyl}-2-methanesulfonyl-N-[(2S,3R,4R,5R)-2,3,4,5,6-pentahydroxyhexyl]acetamide] | < 100 |
| Cc1ccc(Cl)cc1COC1(c2cnccc2-c2ccccc2OC2CC2)CC1 [Compound I-55, 3-{1-[(5-chloro-2-methylphenyl)methoxy]cyclopropyl}-4-(2-cyclopropoxyphenyl)pyridine] | < 100 |
| COc1cc(Cl)c(COC2(c3cnccc3-c3ccccc3OC3CC3)CC2)cc1S(=O)(=O)N(C)C [Compound I-730, 4-chloro-5-([1-[4-(2-cyclopropoxyphenyl)pyridin-3-yl]cyclopropoxy]methyl)-2-methoxy-N,N-dimethylbenzene-1-sulfonamide] | < 100 |
| O=C(NCCC1CCN(S(=O)(=O)c2ccc(Cl)c(COC3(c4cnccc4-c4ccccc4OC4CC4)CC3)c2)CC1)NC[C@H](O)[C@@H](O)[C@H](O)[C@H](O)CO [Compound I-417, 1-(2-{1-[4-chloro-3-({1-[4-(2-cyclopropoxyphenyl)pyridin-3-yl]cyclopropoxy}methyl)benzenesulfonyl]piperidin-4-yl}ethyl)-3-[(2S,3R,4R,5R)-2,3,4,5,6-pentahydroxyhexyl]urea] | < 100 |
| Cc1ccc(C(CO)CCCNC(=O)[C@@H](O)[C@@H](O)[C@H](O)[C@@H](O)CO)cc1CNC1(c2cnccc2-c2ccccc2OC2CC2)CC1 (stereo partly drawn) [Compound I-386, (2S,3S,4R,5S)-N-(4-{3-[({1-[4-(2-cyclopropoxyphenyl)pyridin-3-yl]cyclopropyl}amino)methyl]-4-methylphenyl}-5-hydroxypentyl)-2,3,4,5,6-pentahydroxyhexanamide] | < 100 |
| FC(F)(F)c1ccc(Cl)c(COC2(c3cnccc3-c3ccccc3OC3CC3)CC2)c1 [Compound I-52, 3-(1-{[2-chloro-5-(trifluoromethyl)phenyl]methoxy}cyclopropyl)-4-(2-cyclopropoxyphenyl)pyridine] | < 100 |
| CCN(CCCCN)S(=O)(=O)c1ccc(Cl)c(COC2(c3cnccc3-c3ccccc3OC3CC3)CC2)c1 [Compound I-463, N-(4-aminobutyl)-4-chloro-3-({1-[4-(2-cyclopropoxyphenyl)pyridin-3-yl]cyclopropoxy}methyl)-N-ethylbenzene-1-sulfonamide] | < 100 |
| Cc1nc(C)c(CNC2(c3cnccc3-c3ccccc3OC3CC3)CC2)nc1C [Compound I-27, 1-[4-(2-cyclopropoxyphenyl)pyridin-3-yl]-N-[(trimethylpyrazin-2-yl)methyl]cyclopropan-1-amine] | 126 to 1000 |
| O=C(O)CCCNC(=O)N(CCCCc1cc(Cl)c(COC2(c3cnccc3-c3ccccc3OC3CC3)CC2)cc1Cl)C[C@H](O)[C@@H](O)[C@H](O)[C@H](O)CO [Compound I-199, 4-[({4-[2,5-dichloro-4-({1-[4-(2-cyclopropoxyphenyl)pyridin-3-yl]cyclopropoxy}methyl)phenyl]butyl}[(2S,3R,4R,5R)-2,3,4,5,6-pentahydroxyhexyl]carbamoyl)amino]butanoic acid] | 126 to 1000 |
| CCOC(=O)NCCN(CCCSc1ccc(Cl)c(COC2(c3cnccc3-c3ccccc3OC3CC3)CC2)c1)C(=O)[C@@H](O)[C@@H](O)[C@H](O)[C@@H](O)CO [Compound I-597, ethyl N-{2-[(2S,3S,4R,5S)-N-(3-{[4-chloro-3-({1-[4-(2-cyclopropoxyphenyl)pyridin-3-yl]cyclopropoxy}methyl)phenyl]sulfanyl}propyl)-2,3,4,5,6-pentahydroxyhexanamido]ethyl}carbamate] | 126 to 1000 |
